Reference: patent US20120029075A1, “COMPOSITIONS CONTAINING C1 TO C7 ORGANIC ACID MONOGLYCERIDES AND GLYCEROL, THEIR PREPARATION AND USE AS ANTIBACTERIALS AND ANTI-MOULD AGENTS” (priority 2009, published 2012)
Read-outs that look alike come from different tables or passages of the source.

Tests used:
[1] = system: Clostridium perfringens CP27; format: cell-based; conditions: for Incubation time and appearance of growth: inoculation 10^5, Brain Heart Infusion, 3 replications; for Concentration exhibiting inhibitory potency (no growth) in all three replicates: Clostridium perfringens, tested 500-4000 ppm
[2] = system: Porcine Salmonella typhimurium; experiment: In vitro antibacterial action, appearance of growth in Brain Heart Infusion, pH 6 (Tables 3 and 4); format: cell-based; conditions: for Incubation time and appearance of growth: pH 6, inoculation 10^5, Brain Heart Infusion, 3 replications; for Concentration exhibiting inhibitory potency (no growth) in all three replicates: porcine Salmonella typhimurium, tested 5000-40000 ppm
Aspergillus spp = experiment: In vitro sensitivity test towards filamentous fungi (Example 5), Aspergillus; format: cell-based; conditions: 5 ml fungal suspension + 5 ml product, 24 hours at 20±4° C.; read after 5 days; control 450000
Experimental: (§1) In Vitro Sensitivity Tests towards Filamentous Fungi (Moulds)
(§2) Strains of Aspergillus spp, Penicillium spp and Fusarium spp were utilized for the test, having been isolated and identified during diagnostic activity at the IZSLER section of Forli from complete feeds used in the chicken industry. To prepare the inoculum, mycelium of pure cultures of the tested strains was collected using a swab. The material thus collected was dissolved in a culture broth (BHI—Brain Heart Infusion). 5 ml of the fungal suspension and an equal amount of the product to be tested were placed in contact in a test tube. The test tube was incubated at 20±4° C. for 24 hours.
(§3) After this time period, the fungal suspension was then seeded and enumerated.
(§4) The control suspension was obtained by placing 5 ml of fungal suspension+5 ml of diluent (Ringer's lactate) into a test tube. Reading of the tests was carried out after a 5 day incubation period at 20±4° C.

Fusarium spp = experiment: In vitro sensitivity test towards filamentous fungi (Example 5), Fusarium; format: cell-based; conditions: 5 ml fungal suspension + 5 ml product, 24 hours at 20±4° C.; read after 5 days; control 310000
Experimental: as §1, §2, §3, §4

Penicillium spp = experiment: In vitro sensitivity test towards filamentous fungi (Example 5), Penicillium; format: cell-based; conditions: 5 ml fungal suspension + 5 ml product, 24 hours at 20±4° C.; read after 5 days; control 97000
Experimental: as §1, §2, §3, §4

Salmonella typhimurium = experiment: Antibacterial potency (Table 1), Salmonella typhimurium count
Campylobacter jejuni = experiment: Antibacterial potency (Table 1), Campylobacter jejuni count
E. coli [3] = experiment: Antibacterial potency (Table 1), E. coli count; format: cell-based
E. coli [4] = experiment: In vitro antibacterial action, appearance of growth in Brain Heart Infusion, pH 5 (Table 5); conditions: for Incubation time and appearance of growth: pH 5, inoculation 10^5, Brain Heart Infusion, 3 replications
[5] = pH 4.5, conc. used: Propionic acid 1:909, Butyric Acid 1:1000, Monobutyrin 43 1:100
[6] = pH 7, conc. used: Propionic acid 1:909, Butyric Acid 1:1000, Monopropionin 43 1:109, Monobutyrin 43 1:100

Q: Butyric acid monoglycerides was tested. Which “Incubation time and appearance of growth” value ([1]; 500 ppm) did it give?
A: + (+ for 24 hr)

Q: What about the “Incubation time and appearance of growth” value ([1]; 1000 ppm) of the same compound?
A: + (+ for 24 hr)

Q: What about the “Incubation time and appearance of growth” value ([1]; 1500 ppm) of the same compound?
A: + (+ for 24 hr)

Q: What about the “Incubation time and appearance of growth” value ([1]; 2000 ppm) of the same compound?
A: + (+ for 24 hr)

Q: And the “Incubation time and appearance of growth” value ([1]; 2500 ppm)?
A: + (+ for 24 hr)

Q: And the “Incubation time and appearance of growth” value ([1]; 3000 ppm)?
A: + (+ for 24 hr)

Q: And the “Incubation time and appearance of growth” value ([1]; 4000 ppm)?
A: + (+ for 24 hr)

Q: What about the “Concentration exhibiting inhibitory potency (no growth) in all three replicates” value [1] of the same compound?
A: do not exhibit any inhibitory potency

Q: Which “Incubation time and appearance of growth” value ([2]; 5000 ppm, Table 4) does the source give for Formic acid monoglycerides here?
A: + (+ for 24 hr)

Q: What about the “Incubation time and appearance of growth” value ([2]; 10000 ppm, Table 4) of the same compound?
A: + (+ for 24 hr)

Q: And the “Incubation time and appearance of growth” value ([2]; 15000 ppm, Table 4)?
A: + (+ for 24 hr)

Q: What about the “Incubation time and appearance of growth” value ([2]; 20000 ppm, Table 4) of the same compound?
A: + (+ for 24 hr)

Q: What about the “Incubation time and appearance of growth” value ([2]; 25000 ppm, Table 4) of the same compound?
A: no growth

Q: What about the “Incubation time and appearance of growth” value ([2]; 30000 ppm, Table 4) of the same compound?
A: no growth

Q: And the “Incubation time and appearance of growth” value ([2]; 40000 ppm, Table 4)?
A: no growth

Q: What about the “Concentration exhibiting inhibitory potency (no growth) in all three replicates” value ([2]; formic acid series) of the same compound?
A: ≥ 25,000 ppm

Q: What does the source list for `CCC(=O)O.N` [Ammonium propionate]?
A: ASPERGILLUS spp. count (Aspergillus spp): 1000 cfu/ml; FUSARIUM spp. count (Fusarium spp): 500 cfu/ml; PENICILLIUM spp. count (Penicillium spp): 100 cfu/ml

Q: With `CC(=O)O` [Acetic acid] as the compound, how does the “Incubation time and appearance of growth” value ([2]; 5000 ppm, Table 3) read?
A: + (+ for 24 hr)

Q: What about the “Incubation time and appearance of growth” value ([2]; 10000 ppm, Table 3) of the same compound?
A: + (+ for 24 hr)

Q: And the “Incubation time and appearance of growth” value ([2]; 15000 ppm, Table 3)?
A: + (+ for 24 hr)

Q: What about the “Incubation time and appearance of growth” value ([2]; 20000 ppm, Table 3) of the same compound?
A: no growth

Q: What about the “Incubation time and appearance of growth” value ([2]; 25000 ppm, Table 3) of the same compound?
A: no growth

Q: And the “Incubation time and appearance of growth” value ([2]; 30000 ppm, Table 3)?
A: no growth

Q: What about the “Incubation time and appearance of growth” value ([2]; 40000 ppm, Table 3) of the same compound?
A: no growth

Q: And the “Concentration exhibiting inhibitory potency (no growth) in all three replicates” value ([2]; acetic acid series)?
A: ≥ 20,000 ppm

Q: How did the “Incubation time and appearance of growth” value ([1]; 500 ppm) turn out when `CCCC(=O)O` [Butyric Acid] was run?
A: + (+ for 24 hr)

Q: And the “Incubation time and appearance of growth” value ([1]; 1000 ppm)?
A: + (+ for 24 hr)

Q: What about the “Incubation time and appearance of growth” value ([1]; 1500 ppm) of the same compound?
A: + (+ for 24 hr)

Q: What about the “Incubation time and appearance of growth” value ([1]; 2000 ppm) of the same compound?
A: ++ (++ for 37 hr)

Q: And the “Incubation time and appearance of growth” value ([1]; 2500 ppm)?
A: ++ (++ for 37 hr)

Q: And the “Incubation time and appearance of growth” value ([1]; 3000 ppm)?
A: no growth

Q: What about the “Incubation time and appearance of growth” value ([1]; 4000 ppm) of the same compound?
A: no growth

Q: What about the “Concentration exhibiting inhibitory potency (no growth) in all three replicates” value [1] of the same compound?
A: ≥ 3000 ppm

Q: What about the “Salmonella typhimurium (cfu/ml)” value (Salmonella typhimurium; [5]) of the same compound?
A: 25 × 10^3 cfu/ml

Q: What about the “Salmonella typhimurium (cfu/ml)” value (Salmonella typhimurium; [6]) of the same compound?
A: 65 × 10^4 cfu/ml

Q: And the “Campylobacter jejuni (cfu/ml)” value (Campylobacter jejuni; [5])?
A: 2 × 10^1 cfu/ml

Q: And the “Campylobacter jejuni (cfu/ml)” value (Campylobacter jejuni; [6])?
A: 18 × 10^3 cfu/ml

Q: And the “E. coli (cfu/ml)” value (E. coli [3]; [5])?
A: 78 × 10^4 cfu/ml

Q: What about the “E. coli (cfu/ml)” value (E. coli [3]; [6]) of the same compound?
A: 106 × 10^4 cfu/ml

Q: Which results are given for `O=C(O)/C=C/C(=O)O` [Fumaric acid]?
A: Incubation time and appearance of growth (E. coli [4]; 10000 ppm): + (+ for 24 hr); Incubation time and appearance of growth (E. coli [4]; 20000 ppm): + (+ for 24 hr); Incubation time and appearance of growth (E. coli [4]; 40000 ppm): + (+ for 24 hr); Incubation time and appearance of growth (E. coli [4]; 60000 ppm): ++ (++ for 37 hr); Incubation time and appearance of growth (E. coli [4]; 80000 ppm): ++ (++ for 37 hr); Incubation time and appearance of growth (E. coli [4]; 90000 ppm): no growth; Incubation time and appearance of growth (E. coli [4]; 100000 ppm): no growth; Concentration exhibiting inhibitory potency (no growth) in all three replicates (E. coli [4]; E. coli, tested 10000-100000 ppm): ≥ 90,000 ppm

Q: Which “Salmonella typhimurium (cfu/ml)” value (Salmonella typhimurium; [5]) does the source give for `CCC(=O)O` [Propionic acid] here?
A: 42 × 10^3 cfu/ml

Q: What about the “Salmonella typhimurium (cfu/ml)” value (Salmonella typhimurium; [6]) of the same compound?
A: 11 × 10^4 cfu/ml

Q: And the ASPERGILLUS spp. count (Aspergillus spp)?
A: 300 cfu/ml

Q: And the “Campylobacter jejuni (cfu/ml)” value (Campylobacter jejuni; [5])?
A: 14 × 10^1 cfu/ml

Q: And the “Campylobacter jejuni (cfu/ml)” value (Campylobacter jejuni; [6])?
A: 33 × 10^3 cfu/ml

Q: And the FUSARIUM spp. count (Fusarium spp)?
A: 300 cfu/ml

Q: And the PENICILLIUM spp. count (Penicillium spp)?
A: <100 cfu/ml

Q: What about the “E. coli (cfu/ml)” value (E. coli [3]; [5]) of the same compound?
A: 13 × 10^4 cfu/ml

Q: And the “E. coli (cfu/ml)” value (E. coli [3]; [6])?
A: 54 × 10^4 cfu/ml
